From patent publication US11834566B2, “High-carbon recovered paper and plastic materials with reduced endotoxin levels” (Continuus Materials Intellectual Property, LLC, priority 2020, dated 2023)

Experiment: Water-soluble endotoxin in aqueous extract of recovered paper/plastic fragments, L.A.L. kinetic chromogenic method
Details: Example 13, about 2,000 ppm glutaraldehyde on fragments
Method: Sample #7 from Example 1 was assayed for water-soluble endotoxins. Specifically, a clean, new 500 mL plastic bottle (500 mL capacity) was charged with recovered paper/plastic fragments (20 g, from sample #7 in Example 1) and sterile, cell-culture grade water (200 g). The bottle was immediately capped tightly and agitated in a Gilson shaker for a period of 60 s. The loaded bottle was then conditioned for 1 h at a temperature of 65-70° F. and was then subjected to agitation in the Gilson shaker for a second period of 60 s. The bottle was then opened and a sample of liquor extract (15 mL) was decanted into a sterile sample vial, which was immediately capped and labeled. Collected extract underwent endotoxin analysis using the L.A.L. kinetic chromogenic method.
Recovered paper/plastic sample batches (500 g, as-is basis, #7 sample from Example 1) were loaded into a plastic bin (16.125″×11.25″×6.75″) and were then sprayed with aqueous glutaraldehyde solutions at various target levels. In this process, the loaded bin was weighed initially and was then re-weighed repeatedly during the application of the glutaraldehyde solution until the target application level was achieved. The bin was repeatedly closed and shaken during this process in order to obtain a uniform distribution of the glutaraldehyde on the fragments. […]

O=CCCCC=O [glutaraldehyde]
water-soluble endotoxin crosslinked and converted to water-insoluble material: about 99.9%
